Test [1] has as its target T1, Nitric oxide synthase, inducible (Homo sapiens, UniProt P35228). In words: Binding affinity to iNOS with heme domain construct assessed as spectral binding constant by spectral assay.
Test [2] has as its target T1, Nitric oxide synthase, inducible. In words: Activity of iNOS assessed as increase in Kcat by indirect spectral assay relative to N'G-hydroxy-L-arginine.

The Kd is the free concentration of one partner at which half of the binding sites on the other are occupied at equilibrium, for simple one-to-one binding.

T1 sequence (P35228 whole entry, the tested form may be a part): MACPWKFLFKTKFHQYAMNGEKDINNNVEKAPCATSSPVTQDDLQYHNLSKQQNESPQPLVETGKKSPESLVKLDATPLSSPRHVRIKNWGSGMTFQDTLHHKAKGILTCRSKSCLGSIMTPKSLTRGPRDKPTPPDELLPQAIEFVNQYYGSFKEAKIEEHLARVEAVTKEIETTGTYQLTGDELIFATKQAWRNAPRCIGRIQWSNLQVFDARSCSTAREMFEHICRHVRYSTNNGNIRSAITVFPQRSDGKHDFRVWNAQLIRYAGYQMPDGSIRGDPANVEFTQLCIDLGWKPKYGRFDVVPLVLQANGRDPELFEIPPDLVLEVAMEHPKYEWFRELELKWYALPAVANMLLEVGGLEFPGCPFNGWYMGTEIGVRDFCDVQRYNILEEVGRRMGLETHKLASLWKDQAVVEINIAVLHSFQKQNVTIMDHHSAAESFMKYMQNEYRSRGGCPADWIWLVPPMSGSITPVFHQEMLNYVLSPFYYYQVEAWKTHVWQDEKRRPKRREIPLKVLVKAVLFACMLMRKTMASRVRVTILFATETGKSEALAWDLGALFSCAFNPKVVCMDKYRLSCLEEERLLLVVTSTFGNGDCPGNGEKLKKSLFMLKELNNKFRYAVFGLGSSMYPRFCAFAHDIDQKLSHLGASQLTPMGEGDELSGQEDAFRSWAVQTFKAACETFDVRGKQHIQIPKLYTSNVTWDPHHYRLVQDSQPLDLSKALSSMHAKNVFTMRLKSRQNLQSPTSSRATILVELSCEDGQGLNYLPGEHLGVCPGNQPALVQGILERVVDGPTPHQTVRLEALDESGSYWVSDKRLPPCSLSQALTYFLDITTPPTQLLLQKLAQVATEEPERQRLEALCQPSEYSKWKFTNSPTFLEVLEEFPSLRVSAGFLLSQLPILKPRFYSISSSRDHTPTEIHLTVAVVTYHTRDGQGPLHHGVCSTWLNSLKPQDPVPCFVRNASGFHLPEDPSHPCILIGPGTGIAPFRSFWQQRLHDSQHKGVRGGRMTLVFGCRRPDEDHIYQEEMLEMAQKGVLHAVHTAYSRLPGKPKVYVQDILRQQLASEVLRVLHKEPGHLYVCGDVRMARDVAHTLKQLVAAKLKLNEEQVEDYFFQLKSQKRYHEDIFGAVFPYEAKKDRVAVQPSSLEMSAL

Take `N/C(=N\O)NCC(F)(F)C[C@H](N)C(=O)O`: the Kd in test [1] worked out at 116 µM. Besides, the Activity in test [2] was found to be 30%.
For `N=C(N)NCC(F)(F)C[C@H](N)C(=O)O`, in that order: 3100 µM and 10%.
As for `N=C(NO)NCCC[C@H](N)C(=O)O`, in test [1], the Kd was 5.1 µM.

(Values after ChEMBL document CHEMBL1153920, “4,4-Difluorinated analogues of l-arginine and N(G)-hydroxy-l-arginine as mechanistic probes for nitric oxide synthase” (Bioorg Med Chem Lett, 2009).)
